Where two headings read alike, the source gives them in different places. One block for each compound: values may come before it.
Assays:
human apo-transferrin [1] = molecular target: T1, human apo-transferrin (Homo sapiens, UniProt P02787); details: 40 µM
Description: (§1) FIG. 13 illustrates stacked labelling traces of ^67Ga(dedpa)^+ of 2 h stability experiment against apo-transferrin (gradient: A: NaOAc buffer, pH 4.5, B: MeOH. 0-100% B linear gradient 20 min).

human apo-transferrin [2] = molecular target: T1, human apo-transferrin; assay: ^67Ga complex stability: 2-h competition with excess human apo-transferrin, HPLC; details: for Stability in competition with excess human apo-transferrin, 10 min / Stability in competition with excess human apo-transferrin, 1 h / Stability in competition with excess human apo-transferrin, 2 h: ^67Ga complex, 37° C
Description: as §1

[3] = Solution thermodynamics: formation constants (log KML) and pM of Ga(III) complexes, potentiometric titration; assay type: physicochemical; details: Calculated for 10 μM total ligand and 1 μM total metal at pH 7.4 and 25° C
Description: A more relevant indicator of the extent to which a metal complex is formed in solution is given by pM (−log free M) which considers the influence of ligand basicity and chelate hydrolysis.
Carbonate-free solutions of the titrant, NaOH, were prepared by dilution of 50% solution (Acros Organics) with freshly boiled MQ water under a stream of purified nitrogen gas. The solution was standardized with potassium acid phthalate and the extent of carbonate accumulation was periodically checked by titration with a standard hydrochloric acid solution and determination of the corresponding Gran titration plot.^47 Gallium ion solutions were prepared by dilution of the appropriate atomic absorption (AA) standard. The exact amount of acid present in the gallium standard was determined by titration of an equimolar solution of Ga and Na2H2EDTA. The amount of acid present was determined by Gran's method.^47
Data were collected in triplicate using PC Control (Version 6.0.91, Metrohm). The titration apparatus consisted of a 10 mL water jacketed glass vessel maintained at 25.0±0.1° C. (Julabo waterbath). Prior to and during the course of the titration, a blanket of nitrogen, passed through 10% NaOH to exclude any CO2, was maintained over the sample solution. The ionic strength was maintained at 0.16 M using NaCl. Prior to each potentiometric equilibrium study, the electrode was calibrated using standard HCl solutions. Calibration data were analysed by standard computer treatment provided within the program MacCalib to obtain the calibration parameters E0 and pKw.
As the degree of formation of Ga(III) complexes at low pH (<2) was too high for the determination of stability constants by use of direct potentiometry, the ligand-ligand competition method using Na2H2EDTA was also performed.

[4] = Ga(III) complex, cited from earlier work; for log KML: literature value
log P = assay type: physicochemical
human apo-transferrin [5] = molecular target: T1, human apo-transferrin; assay: ^111In-chelate stability: binding competition with human apo-transferrin at ambient temperature, PD-10 columns; assay type: in vitro ADME; set-up: Human serum apo-transferrin was purchased from Sigma-Aldrich; purchased Sigma-Aldrich; host or cells: human serum
Description: Human apo-transferrin (Aldrich) was suspended in 10 mM NaHCO3 buffer at pH 6.9. Labeling solutions were prepared with chelators and ^111In in 10 mM NaHCO3 buffer at pH 5.5, and allowed to sit for 20-30 minutes. Quantitative formation of ^111In-chelate complexes was confirmed by HPLC (same methods as in Example 2). ^111In(DOTA) was formed using a microwave reactor (Biotage) at 80° C. for 10 minutes to ensure quantitative labeling. Competition experiments for all 8 chelators studied (Table 3) were performed with preformed ^111In-chelate complexes at a concentration of 36.5 mM, and with human apo-transferrin at a concentration of ˜10 mM. Samples were left to sit in sterile scintillation vials for 1 hour and 24 hours at ambient temperature. Chelate stability was determined using size-exclusion ‘desalting’ columns (GE Healthcare PD-10 pre-packed columns, Sephadex G-25 M). All compounds smaller than ˜5000 Daltons were retained by the PD-10 columns, and all transferrin was eluted. PD-10 columns were conditioned by discarding the contained bactericidal solution and eluting 20 mL of phosphate buffered saline (PBS, purchased from BioWhittaker). For analysis, the competition experiment solutions were diluted to 2.5 mL with PBS, measured with a Capintec scintillation counter, loaded onto PD-10 columns, and allowed to elute into a waste container fully. An additional 3.5 mL of PBS was then loaded onto the columns and collected into a sterile scintillation vial. PD-10 columns were discarded after a single use. The vial containing the eluent was then measured with a Capintec scintillation counter to determine the amount of ^111In bound to transferrin. The difference in radioactivity between the competition experiment solutions and the eluent from the PD-10 columns was used to determine the percent ^111In bound to transferrin, and therefore the percent stability of the complexes.

T1 sequence (P02787 20-698): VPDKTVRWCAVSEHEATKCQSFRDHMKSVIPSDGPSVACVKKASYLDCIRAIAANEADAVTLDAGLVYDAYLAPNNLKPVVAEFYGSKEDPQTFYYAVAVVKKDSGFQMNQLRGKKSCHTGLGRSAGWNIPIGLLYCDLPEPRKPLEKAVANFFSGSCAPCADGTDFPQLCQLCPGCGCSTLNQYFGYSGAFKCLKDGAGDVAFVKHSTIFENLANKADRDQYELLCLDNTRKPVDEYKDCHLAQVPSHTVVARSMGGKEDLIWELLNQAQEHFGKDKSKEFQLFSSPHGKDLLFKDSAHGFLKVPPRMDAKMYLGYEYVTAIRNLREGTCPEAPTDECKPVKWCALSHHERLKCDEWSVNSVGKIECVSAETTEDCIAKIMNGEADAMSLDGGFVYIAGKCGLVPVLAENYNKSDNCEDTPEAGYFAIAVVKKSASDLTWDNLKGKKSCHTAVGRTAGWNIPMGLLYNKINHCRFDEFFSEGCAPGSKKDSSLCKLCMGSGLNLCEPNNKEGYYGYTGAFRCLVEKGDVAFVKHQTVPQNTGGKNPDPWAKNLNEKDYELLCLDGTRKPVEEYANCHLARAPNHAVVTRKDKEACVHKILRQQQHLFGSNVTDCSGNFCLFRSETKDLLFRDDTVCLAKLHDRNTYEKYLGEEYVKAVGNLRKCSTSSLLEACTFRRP

Compound: O=C(O)c1cccc(CN(CCN(Cc2ccc([N+](=O)[O-])cc2)Cc2cccc(C(=O)O)n2)Cc2ccc([N+](=O)[O-])cc2)n1 [Compound 66]
Stability in competition with excess human apo-transferrin, 10 min (human apo-transferrin [1]; 10 min): 88%
Stability in competition with excess human apo-transferrin, 1 h (human apo-transferrin [1]; 1 h): 69%
Stability in competition with excess human apo-transferrin, 2 h (human apo-transferrin [1]; 2 h): 51%

Compound: O=C(O)c1cccc(CNCCNCc2cccc(C(=O)O)n2)n1 [Compound H2dedpa]
Extraction of gallium from transferrin (in words) (human apo-transferrin [2]; challenge experiment): capable of extracting gallium from transferrin
pM [3]: 27.4

Compound: COc1cc(CN(CCN(Cc2cc(OC)cc(OC)c2)Cc2cccc(C(=O)[O-])n2)Cc2cccc(C(=O)[O-])n2)cc(OC)c1.O=[N+]([O-])[O-].[Ga+3] [Ga(88)NO3]
Stability in competition with excess human apo-transferrin, 10 min (human apo-transferrin [2]): 76%
Stability in competition with excess human apo-transferrin, 1 h (human apo-transferrin [2]): 59%
Stability in competition with excess human apo-transferrin, 2 h (human apo-transferrin [2]): 52%
log P (log P): −0.32

Compound: COc1cc(OC)c(CN(CCN(Cc2cccc(C(=O)[O-])n2)Cc2c(OC)cc(OC)cc2OC)Cc2cccc(C(=O)[O-])n2)c(OC)c1.O=[N+]([O-])[O-].[Ga+3] [Ga(91a)NO3]
Stability in competition with excess human apo-transferrin, 10 min (human apo-transferrin [2]): 86%
Stability in competition with excess human apo-transferrin, 1 h (human apo-transferrin [2]): 85%
Stability in competition with excess human apo-transferrin, 2 h (human apo-transferrin [2]): 82%
log P (log P): −0.03

Compound: COc1cc(CN(CCN(Cc2cc(OC)cc(C(=O)[O-])n2)Cc2c(OC)cc(OC)cc2OC)Cc2c(OC)cc(OC)cc2OC)nc(C(=O)[O-])c1.O=[N+]([O-])[O-].[Ga+3] [Ga(91b)NO3]
Stability in competition with excess human apo-transferrin, 10 min (human apo-transferrin [2]): 97%
Stability in competition with excess human apo-transferrin, 1 h (human apo-transferrin [2]): 96%
Stability in competition with excess human apo-transferrin, 2 h (human apo-transferrin [2]): 96%
log P (log P): 0.66

Compound: CCOc1cc(OCC)c(CN(CCN(Cc2cccc(C(=O)[O-])n2)Cc2c(OCC)cc(OCC)cc2OCC)Cc2cccc(C(=O)[O-])n2)c(OCC)c1.O=[N+]([O-])[O-].[Ga+3] [Ga(99a)NO3]
Stability in competition with excess human apo-transferrin, 10 min (human apo-transferrin [2]): 95%
Stability in competition with excess human apo-transferrin, 1 h (human apo-transferrin [2]): 92%
Stability in competition with excess human apo-transferrin, 2 h (human apo-transferrin [2]): 91%

Compound: CCOc1cc(OCC)c(CN(CCN(Cc2cc(OC)cc(C(=O)[O-])n2)Cc2c(OCC)cc(OCC)cc2OCC)Cc2cc(OC)cc(C(=O)[O-])n2)c(OCC)c1.O=[N+]([O-])[O-].[Ga+3] [Ga(99b)NO3]
Stability in competition with excess human apo-transferrin, 10 min (human apo-transferrin [2]): 94%
Stability in competition with excess human apo-transferrin, 1 h (human apo-transferrin [2]): 93%
Stability in competition with excess human apo-transferrin, 2 h (human apo-transferrin [2]): 93%
log P (log P): 1.16

Compound: O=C(O)c1cccc(CNCCNCc2cccc(C(=O)O)n2)n1 [^111In(1), metal not drawn]
% ^111In-chelate stability at 1 hour (human apo-transferrin [5]): 98%
% ^111In-chelate stability, 24 hour stability (human apo-transferrin [5]): 43%

Compound: O=C(O)c1cccc(CNCCCNCc2cccc(C(=O)O)n2)n1 [^111In(3), metal not drawn]
% ^111In-chelate stability at 1 hour (human apo-transferrin [5]): 91%
% ^111In-chelate stability, 24 hour stability (human apo-transferrin [5]): 85%

Compound: O=C(O)CN(CCCN(CC(=O)O)Cc1cccc(C(=O)O)n1)Cc1cccc(C(=O)O)n1 [^111In(4), metal not drawn]
% ^111In-chelate stability at 1 hour (human apo-transferrin [5]): 93%
% ^111In-chelate stability, 24 hour stability (human apo-transferrin [5]): 91%

Compound: O=C(O)c1cccc(CNCCN(CCNCc2cccc(C(=O)O)n2)Cc2cccc(C(=O)O)n2)n1 [^111In(5), metal not drawn]
% ^111In-chelate stability, 24 hour stability (human apo-transferrin [5]): 88%

Compound: O=C(O)CN(CCN(CC(=O)O)Cc1cccc(C(=O)O)n1)CCN(CC(=O)O)Cc1cccc(C(=O)O)n1 [^111In(6), metal not drawn]
% ^111In-chelate stability at 1 hour (human apo-transferrin [5]): 89%
% ^111In-chelate stability, 24 hour stability (human apo-transferrin [5]): 91%

Compound: Transferrin: iron transport protein found in high concentrations in the blood that has an affinity for Ga
log KML (conditional constant) ([4]; conditional constant from reference): 20.3
pM [3]: 21.3

Second part, led by results:

pM [3]: 18.5
Compound: O=C(O)CN1CCN(CC(=O)O)CCN(CC(=O)O)CCN(CC(=O)O)CC1 [DOTA, 1,4,7,10-tetraazacyclododecane-1,4,7,10-tetraacetic acid, reference compound]
log KML [4]: 21.33

pM [3]: 18.3
Compound: O=C(O)CN(CCN(CC(=O)O)CC(=O)O)CC(=O)O [EDTA, reference compound]
log KML [4]: 21.7

pM [3]: 27.9
Compound: O=C(O)CN1CCN(CC(=O)O)CCN(CC(=O)O)CC1 [NOTA, 1,4,7-triazacyclononane-1,4,7-triacetic acid, reference compound]
log KML [4]: 30.98

% ^111In-chelate stability at 1 hour (human apo-transferrin [5]): 90%
% ^111In-chelate stability, 24 hour stability (human apo-transferrin [5]): 91%
Compound: O=C(O)CN(CCN(CC(=O)O)Cc1cccc(C(=O)O)n1)Cc1cccc(C(=O)O)n1 [^111In(2), metal not drawn]

% ^111In-chelate stability, 24 hour stability (human apo-transferrin [5]): 81%
Compound: O=C([O-])CN1CCN(CC(=O)[O-])CCN(CC(=O)[O-])CCN(CC(=O)[O-])CC1.[111In+3] [^111In(DOTA), reference compound]

% ^111In-chelate stability at 1 hour (human apo-transferrin [5]): 86%
% ^111In-chelate stability, 24 hour stability (human apo-transferrin [5]): 88%
Compound: O=C([O-])CN(CCN(CC(=O)[O-])CC(=O)[O-])CCN(CC(=O)[O-])CC(=O)[O-].[111In+3] [^111In(DTPA), reference compound]
